Measured values published in patent US20200030262A1, “THERAPEUTIC SIGMA 1 RECEPTOR AGONISTS FOR TREATING LONG QT SYNDROME TYPE 1, TYPE 2, TYPE 6, TYPE 8 AND RELATED CHANNELOPATHIES” (priority 2017, published 2020).

What was measured:
control cardiomyocytes [1] = experiment: Calcium imaging of spontaneous calcium transients in control cardiomyocytes; assay type: cell-based, human; conditions: 5 μM, 30 min
Experimental: (§1) The Nikon automatic microscope (Nikon Eclipse TiE with a motorized stage) connected to sCMOS camera (Andor Zyla sCMOS 4.2 MP) together with a stage top incubator (at 37° C., 5% CO2 and 20% O2, controlled by TOKAI HIT Hypoxia gas delivery system) were used for this experiment. Nikon objective lens 40× (Nikon CFI Plan Apo Lambda, NA 0.95) was used for single cell recordings and the cardiomyocyte culture media was used as bath solution. The cells were loaded with FluoForte calcium dye for calcium imaging following the manufacturer's instruction (ENZ-51016, Enzo Life Sciences). […] Thirty minutes after the treatment of Fluvoxamine or PRE-084, a second recording was acquired from the same cell. The calcium transient duration and the calcium transient half (50%) decay time from the recordings before and after treatment were analyzed. Paired student's t-test was used for statistics.

[2] = system: Timothy syndrome cardiomyocytes; experiment: Calcium imaging (FluoForte) of spontaneous calcium transients in Timothy syndrome cardiomyocytes; assay type: cell-based, human; conditions: 5 μM, 30 min
Experimental: as §1

[3] = system: Timothy syndrome cardiomyocytes; experiment: Analysis of cardiomyocyte contractions, Timothy syndrome cardiomyocytes; assay type: cell-based, human; conditions: for contraction irregularity / spontaneous beating rate: 5 μM, 2 hours; for contraction irregularity, long-term repeated treatment / spontaneous beating rate, long-term repeated treatment: 10 μM twice a day for seven days; for rhythmic contraction and cell survival: 10 μM, 7 days, vs untreated control group at day 27; for effects on Timothy syndrome cardiomyocytes: contraction irregularity and beating rate
Experimental: […] The contraction analysis was performed as reported previously (Yazawa et al., 2011). The movies were taken before the treatment, and 2 hours after the treatment of each compound on the intact monolayer Timothy syndrome cardiomyocytes. The contraction rate and the irregularity value of each sample before and after treatment were compared using paired Student t-test.

LQTS1 cardiomyocytes = experiment: Action potential recordings in LQTS1 cardiomyocytes; assay type: cell-based, human
Experimental: (§2) The Timothy syndrome and control iPSCs were differentiated into cardiomyocytes following a protocol reported previously (Song et al., 2015). The cardiomyocytes were dissociated into single cells for whole-cell patch-clamp recordings at day 31 and used for patch clamping between day 35 and 45. Whole-cell patch-clamp recordings of iPSC-derived cardiomyocytes were conducted using a MultiClap 700B patch-clamp amplifier (Molecular Devices) and an inverted microscope equipped with differential interface optics (Nikon, Ti-U). The glass pipettes were prepared using borosilicate glass (Sutter Instrument, BF150-110-10) using a micropipette puller (Sutter Instrument, Model P-97). Voltage-clamp measurements were conducted using an extracellular solution consisting of 5 mM BaCl2, 160 mM TEA and 10 mM HEPES (pH7.4 at 25° C.) and a pipette solution of 125 mM CsCl, 0.1 mM CaCl2, 10 mM EGTA, 1 mM MgCl2, 4 mM MgATP and 10 mM HEPES (pH 7.4 with CsOH at 25° C.). The protocol for voltage-clamp recordings was that cells were held at −90 mV and then depolarized to −10 mV for 400 ms at a rate of 0.1 Hz for the Ba^2+ current recordings; cells were held at −90 mV, stimulated with a 2-s family of pulses from −90 to +20 for the current-voltage relationship of the Ba^2+ currents. The recordings were conducted under room temperature. […] Recorded action potentials were analyzed using Clampfit 10.4 (Axon Instruments). […]

LQTS6 cardiomyocytes = experiment: Paced action potential recordings in LQTS6 cardiomyocytes; assay type: cell-based, human; conditions: 5 μM, 2 hr; paced 0.5 Hz; M54T mutation in MiRP1
control cardiomyocytes [4] = experiment: Analysis of cardiomyocyte contractions, healthy control cardiomyocytes; assay type: cell-based, human; conditions: 5 μM, 2 hours
[5] = system: Timothy syndrome cardiomyocytes; experiment: Current-clamp action potential recordings in Timothy syndrome cardiomyocytes; assay type: cell-based, human; conditions: 2 hr; for paced action potential duration: paced 0.2 Hz
Experimental: The Timothy syndrome and control iPSCs were differentiated into cardiomyocytes following a protocol reported previously (Song et al., 2015). The cardiomyocytes were dissociated into single cells for whole-cell patch-clamp recordings at day 31 and used for patch clamping between day 35 and 45. Whole-cell patch-clamp recordings of iPSC-derived cardiomyocytes were conducted using a MultiClap 700B patch-clamp amplifier (Molecular Devices) and an inverted microscope equipped with differential interface optics (Nikon, Ti-U). The glass pipettes were prepared using borosilicate glass (Sutter Instrument, BF150-110-10) using a micropipette puller (Sutter Instrument, Model P-97). Voltage-clamp measurements were conducted using an extracellular solution consisting of 5 mM BaCl2, 160 mM TEA and 10 mM HEPES (pH7.4 at 25° C.) and a pipette solution of 125 mM CsCl, 0.1 mM CaCl2, 10 mM EGTA, 1 mM MgCl2, 4 mM MgATP and 10 mM HEPES (pH 7.4 with CsOH at 25° C.). The protocol for voltage-clamp recordings was that cells were held at −90 mV and then depolarized to −10 mV for 400 ms at a rate of 0.1 Hz for the Ba^2+ current recordings; cells were held at −90 mV, stimulated with a 2-s family of pulses from −90 to +20 for the current-voltage relationship of the Ba^2+ currents. The recordings were conducted under room temperature. […] The recordings were conducted at 37° C. Cardiac action potentials were stimulated (2 ms, 1 nA) in current clamp mode at 37° C. (0.2 or 0.5 Hz). Recorded action potentials were analyzed using Clampfit 10.4 (Axon Instruments). Control recordings were obtained from cardiomyocytes without treatment.
Patch-Clamp Electrophysiology of the cardiomyocytes was done as described in Example 1.

sodium channels = conditions: reported (Johannessen et al., 2009); cited from earlier work
[6] = Dxm concentration in the plasma of mice; assay type: in vivo, mouse; conditions: adult normal mice, Dxm in drinking water
Experimental: (§3) Subcutaneous 4-lead electrocardiograms of isoflurane-anesthetized 12-week old mice were performed using emka ECG and recorded using iox 2.8.0.19. Recordings were conducted a day 4 and 11 after tamoxifen (Sigma-Aldrich, 50 μg/B.W.(g)/day/mouse, i.e., approximately 1 mg/day/mouse) was administrated at day 1-3. Dxm was resolved to drinking water. Total amount of taken dextromethorphan was estimated based on water consumption in each mouse (23-44 mg/kg). To obtain accurate amount of dextromethorphan administration in mice, the concentration of dextromethorphan in the plasma was measured and analyzed at Columbia University Biomarkers Core Laboratory. RR and QT intervals were measured manually using ecgAUTO v2.8.1.27, Excel and Prism 6/7 software.

Timothy syndrome mice = experiment: Mouse electrocardiography, Timothy syndrome mouse model; assay type: in vivo; conditions: in drinking water
Experimental: A model mouse for Timothy Syndrome was generated by targeting the Rosa26 locus with a G406R mutant in the calcium channel Cacna1c gene (see FIG. 10A). The experimental design for inducing the expression of Timothy syndrome mutant with Dxm treatment (about 28 mg/kg) is shown in FIG. 10B.
as §3

[7] = system: isogenic control (Ctrl) iPSC-derived cardiomyocytes; experiment: Paced action potential recordings in isogenic control iPSC-derived cardiomyocytes; assay type: cell-based, human; conditions: 5 uM, 2 hr
Experimental: as §2

[8] = system: long QT syndrome type 2 iPSC-derived cardiomyocytes; experiment: Action potential recordings in long QT syndrome type 2 iPSC-derived cardiomyocytes; assay type: cell-based, human; conditions: 5 uM, 2 hr
Experimental: as §2

Sigma-1R = Sigma-1R (Homo sapiens, UniProt Q99720); conditions: cited from earlier work
Sequence of Sigma-1R (Q99720 whole entry, species assumed): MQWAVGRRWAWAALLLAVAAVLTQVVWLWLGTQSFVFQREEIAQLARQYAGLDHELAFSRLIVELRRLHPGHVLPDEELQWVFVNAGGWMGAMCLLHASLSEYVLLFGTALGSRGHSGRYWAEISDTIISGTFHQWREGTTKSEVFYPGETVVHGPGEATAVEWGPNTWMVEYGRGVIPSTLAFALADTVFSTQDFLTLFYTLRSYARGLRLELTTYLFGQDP

control littermate mice = experiment: Mouse electrocardiography, control littermate mice; assay type: in vivo; conditions: in drinking water
Experimental: as §3

[9] = system: Timothy syndrome iPSC-derived cardiomyocytes; experiment: GCaMP6f-based calcium imaging in Timothy syndrome iPSC-derived cardiomyocytes; assay type: cell-based, human; conditions: 5 uM, 2 hr
hERG current IKr [10] = assay type: cell-based, human; conditions: 5 uM, 2 hr; E-4031-sensitive current
Experimental: (§4) The following pulse protocol was used: 5-s voltage clamp applied from 10 mV to 50 mV (Δ20 mV, holding at −40 mV, 0.1 Hz, at 25° C.). After recordings, the extracellular solution was switched to one containing 1 μM E-4031 (TOCRIS). E-4031-sensitive current was measured and analyzed as IKr current using Clampfit 10.4 (Axon Instruments).

hERG current IKr [11] = molecular target: T1, hERG current IKr (Homo sapiens, UniProt Q12809); assay type: cell-based; conditions: 5 uM, 2 hr; E-4031-sensitive current
T1 construct: hERG current IKr in Timothy syndrome iPSC-derived cardiomyocytes; endogenous in cells; host or cells: Timothy syndrome iPSC-derived cardiomyocytes
T1 sequence (Q12809 whole entry): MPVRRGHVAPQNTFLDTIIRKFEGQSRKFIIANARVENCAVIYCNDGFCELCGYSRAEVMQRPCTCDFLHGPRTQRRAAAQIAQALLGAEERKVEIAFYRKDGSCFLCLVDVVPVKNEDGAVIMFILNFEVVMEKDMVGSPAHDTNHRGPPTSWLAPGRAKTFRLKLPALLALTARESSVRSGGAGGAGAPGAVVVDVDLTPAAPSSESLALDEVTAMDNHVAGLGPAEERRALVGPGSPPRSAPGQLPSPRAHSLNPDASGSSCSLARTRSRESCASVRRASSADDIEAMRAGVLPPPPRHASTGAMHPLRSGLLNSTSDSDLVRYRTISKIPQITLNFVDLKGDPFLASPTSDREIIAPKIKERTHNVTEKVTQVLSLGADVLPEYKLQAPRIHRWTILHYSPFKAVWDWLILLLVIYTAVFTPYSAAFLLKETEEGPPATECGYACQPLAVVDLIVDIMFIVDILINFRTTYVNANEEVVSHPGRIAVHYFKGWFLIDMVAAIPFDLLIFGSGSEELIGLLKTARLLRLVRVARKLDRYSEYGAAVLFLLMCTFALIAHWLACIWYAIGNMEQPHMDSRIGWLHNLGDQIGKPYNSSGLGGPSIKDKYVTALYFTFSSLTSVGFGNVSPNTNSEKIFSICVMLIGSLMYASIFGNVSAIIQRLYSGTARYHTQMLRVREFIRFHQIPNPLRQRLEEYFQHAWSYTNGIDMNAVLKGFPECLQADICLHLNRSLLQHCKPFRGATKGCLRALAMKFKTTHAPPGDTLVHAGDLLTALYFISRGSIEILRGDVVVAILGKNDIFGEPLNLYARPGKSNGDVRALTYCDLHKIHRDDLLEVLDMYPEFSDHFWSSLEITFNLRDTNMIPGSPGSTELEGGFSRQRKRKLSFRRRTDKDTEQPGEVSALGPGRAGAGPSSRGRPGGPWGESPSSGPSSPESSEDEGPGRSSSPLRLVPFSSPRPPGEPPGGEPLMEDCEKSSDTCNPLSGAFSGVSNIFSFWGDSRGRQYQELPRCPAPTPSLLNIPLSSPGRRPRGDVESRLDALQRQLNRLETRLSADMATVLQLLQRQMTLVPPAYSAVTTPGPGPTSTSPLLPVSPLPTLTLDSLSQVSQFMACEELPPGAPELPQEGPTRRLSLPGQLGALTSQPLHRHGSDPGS
Experimental: as §4

With `COCCCC/C(=N\OCCN)c1ccc(C(F)(F)F)cc1` [Fluvoxamine] the “calcium transient duration in control cardiomyocytes” value (control cardiomyocytes [1]) was “did not significantly affect”, the “calcium transient half decay time in control cardiomyocytes” value (control cardiomyocytes [1]) was “did not significantly affect” and the “normal calcium transients in control cardiomyocytes” value (control cardiomyocytes [1]) was “did not significantly affect”. For the same compound, the “abnormal spontaneous calcium transients” value [2] was “alleviated”, the “spontaneous calcium transient duration” value [2] was “significantly reduced” and the “spontaneous calcium transient half decay time” value [2] was “significantly reduced”. For the same compound, the contraction irregularity [3] was “significantly decreased”, the spontaneous beating rate [3] was “increased” and the “contraction irregularity, long-term repeated treatment” value [3] was “reduced”. The “spontaneous beating rate, long-term repeated treatment” value [3] was “significantly enhanced”, the “rhythmic contraction and cell survival” value [3] was “enhanced” and the “prolonged paced action potentials (APD90) in LQTS1 cardiomyocytes” value (LQTS1 cardiomyocytes; 5 μM, 2 hr, paced 0.5 Hz, G269S mutation in KCNQ1) was “significantly reduced”. The “prolonged paced action potentials (APD90) in LQTS6 cardiomyocytes” value (LQTS6 cardiomyocytes) was “significantly reduced”, the “contraction rhythmicity of control cardiomyocytes” value (control cardiomyocytes [4]) was “did not significantly affect” and the “spontaneous beating rate of control cardiomyocytes” value (control cardiomyocytes [4]) was “significantly enhanced”. For the same compound, the “paced action potential duration” value ([5]; 5 μM) was “reduced”.

In the case of `COc1ccc(CNc2nc(NCc3ccc(OC)cc3)c3ncn(C4CCCCC4)c3n2)cc1` [Myoseverin-B], the “effects on Timothy syndrome cardiomyocytes” value [3] is reported as “positive effects”.

In the case of `CCCN(CCC)CCc1ccc(OC)c(OCCc2ccccc2)c1` [NE-100], the “beneficial effects of Fluvoxamine under co-treatment with NE-100” value ([3]; Fluvoxamine 5 μM + NE-100 5 μM, 2 hr) is reported as “blocked”.

For `CC(C)CC(=O)Nc1[nH]nc2c1CN(C(=O)C1CCN(C)CC1)C2(C)C` [PHA-793887], the “effects on Timothy syndrome cardiomyocytes” value [3] was “positive effects”.

In the case of `O=C(OCCN1CCOCC1)C1(c2ccccc2)CCCCC1` [PRE-084], the “effects on sodium channels” value (sodium channels) is listed as “little effects”, the “calcium transient duration in control cardiomyocytes” value (control cardiomyocytes [1]) is listed as “did not significantly affect” and the “calcium transient half decay time in control cardiomyocytes” value (control cardiomyocytes [1]) is listed as “did not significantly affect”. The “normal calcium transients in control cardiomyocytes” value (control cardiomyocytes [1]) was “did not significantly affect”, the “abnormal spontaneous calcium transients” value [2] was “alleviated” and the “spontaneous calcium transient duration” value [2] was “significantly reduced”. The “spontaneous calcium transient half decay time” value [2] was “significantly reduced”, the contraction irregularity [3] was “decreased” and the spontaneous beating rate [3] was “significantly increased”. For the same compound, the “contraction irregularity, long-term repeated treatment” value [3] was “reduced”, the “spontaneous beating rate, long-term repeated treatment” value [3] was “significantly enhanced” and the “rhythmic contraction and cell survival” value [3] was “enhanced”. For the same compound, the “contraction rhythmicity of control cardiomyocytes” value (control cardiomyocytes [4]) was “did not significantly affect”, the “spontaneous beating rate of control cardiomyocytes” value (control cardiomyocytes [4]) was “significantly enhanced” and the “abnormal spontaneous action potentials” value ([5]; 5 μM) was “rescued”. For the same compound, the “paced action potential duration” value ([5]; 5 μM) was “rescued”.

With `COc1ccc(CCN2CCN(CCCc3ccccc3)CC2)cc1OC` [SA4503] the “beating rate or contraction irregularity” value ([3]; 0.1 μM) was “no obvious improvement” and the “contractions of Timothy syndrome cardiomyocytes” value ([3]; dose between 1 μM to 5 μM) was “stopped the contractions”.

For `COc1ccc2c(c1)[C@]13CCCC[C@@H]1[C@H](C2)N(C)CC3` [dextromethorphan], the “plasma concentration of Dxm” value [6] was 5 to 10 ng/mL, the “QT intervals in Timothy syndrome mice” value (Timothy syndrome mice; approximately 28 mg/kg, day 4) was “significantly shortened” and the “QT intervals in Timothy syndrome mice” value (Timothy syndrome mice; day 11) was “significantly shortened”. The “action potential duration (APD90) in isogenic control cells” value [7] was “not changed”, the “action potential duration in long QT syndrome type 2 iPSC-derived cardiomyocytes” value [8] was “significantly shortened” and the Ki (Sigma-1R; read-out: Ki (Sigma-1R), known as Sigma-1R agonist) was 150 nM. The “QT intervals in control littermate mice” value (control littermate mice) was “no significant effect”, the “action potential duration in long QT syndrome type 1 iPSC-derived cardiomyocytes” value (LQTS1 cardiomyocytes; treated vs untreated) was “significantly shortened” and the cardiac transient duration [9] was “significantly shortened”. The cardiac transient frequency [9] was “significantly increased”, the “IKr current in long QT syndrome type 2 iPSC-derived cardiomyocytes” value (hERG current IKr [10]) was “significantly increased” and the “action potential duration (APD90) in Timothy syndrome iPSC-derived cardiomyocytes” value ([5]; 5 uM, paced) was “significantly shortened”. The “IKr current in Timothy syndrome iPSC-derived cardiomyocytes” value (hERG current IKr [11]) was “significantly increased”.

For `Fc1ccc([C@@H]2CCNC[C@H]2COc2ccc3c(c2)OCO3)cc1` [paroxetine], the “affinity for sigma 1 receptor” value (Sigma-1R) is listed as “low affinity” and the “effects on Timothy syndrome cardiomyocytes” value [3] is listed as “no beneficial effects”.
